EC50 data for four compounds are collected here from patent US9597332B2, “Sulfide alkyl compounds for HBV treatment” (NOVIRA THERAPEUTICS, INC., priority 2014, dated 2017).

Bounds are passed on as bounds.

This assay relates to HBV replication in HepG2-2.2.15 cells. The experiment in a line: Inhibition of HBV replication dot-blot assay. The format is cell-based. The note with it: Hepatitis B virus, 144 h, 6 days, reduction in HBV DNA levels. The method, then:
Compounds active in the HBV assembly assay are tested for their activity and toxicity in cellular assay. In the first anti-viral assay, the ability of compounds to inhibit HBV replication in an HBV-producing hepatoma cell line using the dot-blot method is evaluated.
(§1) Briefly, confluent monolayers of HepG2-2.2.15 cells are incubated with complete medium containing various concentrations of a test compound. Three days later, the culture medium is replaced with fresh medium containing the appropriately diluted test compound. Six days following the initial administration of the test compound, the cell culture supernatant is collected, and cell lysis is performed. The samples are applied onto Nylos membranes and DNA is immobilized to the membrane by UV cross-linking. After pre-hybridization, the HBV probe is added and the hybridization is performed overnight. The membranes are exposed to the KODAK films; antiviral activity is calculated from the reduction in HBV DNA levels (EC50). The EC50 for antiviral activity is calculated from the dose response curves of active compounds. Assay performance over time is monitored by the use of the standard positive control compounds ETV, BAY 41-4109, and HAP-1.
Selected compounds are tested for their activity and toxicity in cellular assay. In the first anti-viral assay, the ability of compounds to inhibit HBV replication in an HBV-producing hepatoma cell line using the dot-blot method is evaluated.
as §1, with “Confluent monolayers” for “Briefly, confluent monolayers”, “lysis was” for “lysis is”

The term EC50 denotes the concentration at which the effect is half-maximal. `O=C(Nc1cc(F)c(F)c(F)c1)c1ccc(F)c(S[C@H]2CCCC[C@@H](O)C2)c1` (racemic) [Example 14A, (±)-4-Fluoro-3-(((1S,3R)-3-hydroxycycloheptyl)thio)-N-(3,4,5-trifluorophenyl)benzamide]: the EC50 was below 10 µM.

`O=C(Nc1cc(F)c(F)c(F)c1)c1ccc(F)c(S[C@H]2CCCC[C@H](O)C2)c1` (racemic) [Example 14B, (±)-4-Fluoro-3-(((1R,3R)-3-hydroxycycloheptyl)thio)-N-(3,4,5-trifluorophenyl)benzamide] gave an EC50 below 10 µM.

As for `O=C(Nc1ccc(F)c(Cl)c1)c1ccc(F)c(SC2CCC[C@H](O)C2)c1` (mixture of isomers) [Example 21, (±)-N-(3-Chloro-4-fluorophenyl)-4-fluoro-3-(((1R,3R)-3-hydroxycyclohexyl)thio)benzamide], the EC50 is below 10 µM.

Regarding `O=C(Nc1ccc(F)c(Cl)c1)c1ccc(F)c(S[C@H]2CC[C@H](O)C2)c1` (racemic) [Example 25, (±)-N-(3-Chloro-4-fluorophenyl)-4-fluoro-3-(((1S,3S)-3-hydroxycyclopentyl)thio)benzamide], the EC50 was below 10 µM.
